Test results taken from PubChem BioAssay (NCI).
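Cultured in 96-well plates, cells were exposed to test compound for 48 hours across five concentrations. Definition used: TGI = concentration required for complete inhibition of growth.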

Experiments:
Assay in all cases: NCI tumour cell line growth inhibition, 48 h
[1] = tested on: ACHN renal
[2] = tested on: SK-MEL-5 melanoma
[3] = tested on: HOP-92 NSCLC
[4] = tested on: HOP-62 NSCLC
[5] = tested on: CCRF-CEM leukemia
[6] = tested on: M14 melanoma
[7] = tested on: MCF7 breast
[8] = tested on: NCI-H23 lung
[9] = tested on: MOLT-4 leukemia
[10] = tested on: OVCAR-4 ovarian
[11] = tested on: T-47D breast
[12] = tested on: SR leukemia
[13] = tested on: SW-620 colon
[14] = tested on: NCI-H522 lung
[15] = tested on: OVCAR-8 ovarian
[16] = tested on: OVCAR-5 ovarian
[17] = tested on: PC-3 prostate
[18] = tested on: UO-31 renal
[19] = tested on: DU-145 prostate
[20] = tested on: HT29 colon
[21] = tested on: NCI-H226 lung
[22] = tested on: SK-MEL-28 melanoma
[23] = tested on: EKVX NSCLC
[24] = tested on: SK-OV-3 ovarian
[25] = tested on: RPMI-8226 leukemia
[26] = tested on: NCI-H460 lung
[27] = tested on: HCT-15 colon
[28] = tested on: KM12 colon
[29] = tested on: MALME-3M melanoma
[30] = tested on: LOX IMVI melanoma
[31] = tested on: SK-MEL-2 melanoma
[32] = tested on: SN12C renal
[33] = tested on: COLO 205 colon
[34] = tested on: A549 NSCLC
[35] = tested on: SNB-75 CNS
[36] = tested on: 786-0 renal
[37] = tested on: HL-60(TB) leukemia
[38] = tested on: K-562 leukemia
[39] = tested on: MDA-N
[40] = tested on: A498 renal
[41] = tested on: OVCAR-3 ovarian
[42] = tested on: BT-549 breast
[43] = tested on: SF-539 CNS
[44] = tested on: IGROV1 ovarian
[45] = tested on: SF-268 CNS
[46] = tested on: SF-295 CNS
[47] = tested on: CAKI-1 renal
[48] = tested on: SNB-19 CNS
[49] = tested on: RXF 393 renal
[50] = tested on: NCI/ADR-RES ovarian
[51] = tested on: TK-10 renal
[52] = tested on: U251 CNS
[53] = tested on: HCT-116 colon
[54] = tested on: UACC-257 melanoma
[55] = tested on: HCC-2998 colon
[56] = tested on: MDA-MB-231 breast
[57] = tested on: UACC-62 melanoma
[58] = tested on: MDA-MB-435

Cc1cc(S(=O)(=O)Nc2nc(N)nc(N(C)C)n2)c(S)cc1Cl
TGI [1]: > 10 µM | TGI [2]: > 10 µM | TGI [3]: > 10 µM | TGI [4]: > 10 µM | TGI [5]: > 10 µM | TGI [6]: > 10 µM | TGI [7]: > 10 µM | TGI [8]: > 10 µM | TGI [9]: > 10 µM | TGI [10]: > 10 µM | TGI [11]: > 10 µM | TGI [12]: > 10 µM | TGI [13]: > 10 µM | TGI [14]: > 10 µM | TGI [15]: > 10 µM | TGI [16]: > 10 µM | TGI [17]: > 10 µM | TGI [18]: > 10 µM | TGI [19]: > 10 µM | TGI [20]: > 10 µM | TGI [21]: > 10 µM | TGI [22]: > 10 µM | TGI [23]: > 10 µM | TGI [24]: > 10 µM | TGI [25]: > 10 µM | TGI [26]: > 10 µM | TGI [27]: > 10 µM | TGI [28]: > 10 µM | TGI [29]: > 10 µM | TGI [30]: > 10 µM | TGI [31]: > 10 µM | TGI [32]: > 10 µM | TGI [33]: > 10 µM | TGI [34]: > 10 µM | TGI [35]: > 10 µM | TGI [36]: > 10 µM | TGI [37]: > 10 µM | TGI [38]: > 10 µM | TGI [39]: > 10 µM | TGI [40]: > 10 µM | TGI [41]: > 10 µM | TGI [42]: > 10 µM | TGI [43]: > 10 µM | TGI [44]: > 10 µM | TGI [45]: > 10 µM | TGI [46]: > 10 µM | TGI [47]: > 10 µM | TGI [48]: > 10 µM | TGI [49]: > 10 µM | TGI [50]: > 10 µM | TGI [51]: > 10 µM | TGI [52]: > 10 µM | TGI [53]: > 10 µM | TGI [54]: > 10 µM | TGI [55]: > 10 µM

CC(C(N)=O)N(C)C(=O)c1cc2ccccc2[n+](Cc2ccccc2)c1 (centres undefined)
TGI [1]: > 100 µM | TGI [56]: > 100 µM | TGI [2]: > 100 µM | TGI [3]: > 100 µM | TGI [5]: > 100 µM | TGI [6]: > 100 µM | TGI [7]: > 100 µM | TGI [8]: > 100 µM | TGI [9]: > 100 µM | TGI [10]: > 100 µM | TGI [11]: > 100 µM | TGI [13]: > 100 µM | TGI [14]: > 100 µM | TGI [15]: > 100 µM | TGI [16]: > 100 µM | TGI [17]: > 100 µM | TGI [18]: > 100 µM | TGI [19]: > 100 µM | TGI [20]: > 100 µM | TGI [21]: > 100 µM | TGI [22]: > 100 µM | TGI [25]: > 100 µM | TGI [26]: > 100 µM | TGI [27]: > 100 µM | TGI [57]: > 100 µM | TGI [28]: > 100 µM | TGI [29]: > 100 µM | TGI [31]: > 100 µM | TGI [32]: > 100 µM | TGI [33]: > 100 µM | TGI [34]: > 100 µM | TGI [35]: > 100 µM | TGI [36]: > 100 µM | TGI [37]: > 100 µM | TGI [38]: > 100 µM | TGI [39]: > 100 µM | TGI [40]: > 100 µM | TGI [41]: > 100 µM | TGI [42]: > 100 µM | TGI [43]: > 100 µM | TGI [44]: > 100 µM | TGI [45]: > 100 µM | TGI [46]: > 100 µM | TGI [47]: > 100 µM | TGI [48]: > 100 µM | TGI [58]: > 100 µM | TGI [49]: > 100 µM | TGI [50]: > 100 µM | TGI [51]: > 100 µM | TGI [52]: > 100 µM | TGI [53]: > 100 µM | TGI [54]: > 100 µM | TGI [55]: > 100 µM

COc1nc(-c2cn(S(=O)(=O)c3ccc(C)cc3)c3ccc(Br)cc23)cc(C(F)(F)F)c1C#N
TGI [1]: > 100 µM | TGI [2]: > 100 µM | TGI [3]: > 100 µM | TGI [5]: > 100 µM | TGI [7]: > 100 µM | TGI [8]: 44.9 µM | TGI [9]: > 100 µM | TGI [10]: > 100 µM | TGI [11]: 42.9 µM | TGI [13]: > 100 µM | TGI [14]: > 100 µM | TGI [15]: 64.9 µM | TGI [16]: > 100 µM | TGI [17]: > 100 µM | TGI [18]: > 100 µM | TGI [19]: 31.3 µM | TGI [20]: > 100 µM | TGI [21]: 53.9 µM | TGI [22]: > 100 µM | TGI [23]: > 100 µM | TGI [24]: 59.5 µM | TGI [25]: 41.8 µM | TGI [26]: > 100 µM | TGI [27]: > 100 µM | TGI [57]: > 100 µM | TGI [28]: > 100 µM | TGI [29]: > 100 µM | TGI [30]: > 100 µM | TGI [31]: > 100 µM | TGI [32]: > 100 µM | TGI [33]: > 100 µM | TGI [34]: > 100 µM | TGI [35]: 49.4 µM | TGI [37]: > 100 µM | TGI [38]: > 100 µM | TGI [39]: > 100 µM | TGI [40]: > 100 µM | TGI [41]: 35.8 µM | TGI [42]: 74.2 µM | TGI [43]: > 100 µM | TGI [44]: > 100 µM | TGI [45]: > 100 µM | TGI [46]: > 100 µM | TGI [47]: > 100 µM | TGI [48]: 62.4 µM | TGI [58]: > 100 µM | TGI [49]: 58.8 µM | TGI [50]: > 100 µM | TGI [52]: 35.2 µM | TGI [54]: > 100 µM | TGI [55]: > 100 µM
